According to patent US20260078120A1, “SUBSTITUTED PYRIDOPYRIMIDINONES” (MIRATI THERAPEUTICS, INC., priority 2022, published 2026):

Columns and labels:
Type in all cases: cell-based
[1] = tested on: SKBR3 (PI3Kα wild type) cells; experiment: Inhibition of pAKT formation, alphaLISA SureFire Ultra AKT 1/2/3 (pS473), SKBR3 cells; conditions: Homo sapiens, SK-BR-3; Inhibition of pAKT in SKBR3 (PI3Kα wild type) cells; read-out: SKBR3 (WT) pAKT IC50 (nM) (H1047R mutant) IC50
Summary of the method: (§1)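 Cells seeded in HBSS (SKBR3 12,000/well, MKN1 24,000/well) and dosed immediately, 10-point 1:4 series from […], for about 1 h or 24 h at 37 °C. pAKT S473 by alphaLISA after lysis; signal normalised to alpelisib and DMSO controls, IC50 by four-parameter fit.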

[2] = tested on: MKN1 (PI3Kα E545K mutant) cells; experiment: Inhibition of pAKT formation, alphaLISA SureFire Ultra AKT 1/2/3 (pS473), MKN1 cells; conditions: Homo sapiens
Summary of the method: as §1

[3] = tested on: SKBR3 (PI3Kα wild type) cells; experiment: CellTiter-Glo 2.0 luminescent cell viability assay, 72 hours, SKBR3 cells; conditions: Homo sapiens, SK-BR-3, 72 h
Summary of the method: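 Viability measured via CTG luminescence following roughly 72 hours of compound exposure at 37° C. Dosing used a 10 um starting concentration diluted 1:4 over 10 points; percent-of-vehicle data fitted with a variable-slope four-parameter model for IC50.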

[4] = tested on: MKN1 (PI3Kα E545K mutant) cells; experiment: CellTiter-Glo 2.0 luminescent cell viability assay, 72 hours, MKN1 cells; conditions: Homo sapiens
Summary of the method: (§2)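 Cells seeded at 1000 per well overnight were dosed with a 10-concentration, 1:4 series starting at 10 µM and incubated ~72 h at 37° C. Viability was read by CellTiter-Glo 2.0 luminescence after 30 min at room temperature. IC50 came from four-parameter fits of percent vehicle control.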

[5] = tested on: T47D (PI3Kα H1047R mutant) cells; experiment: CellTiter-Glo 2.0 luminescent cell viability assay, 72 hours, T47D cells; conditions: Homo sapiens, T47D, 72 h
Summary of the method: as §2

[6] = tested on: T47D (PI3Kα H1047R mutant) cells; experiment: Inhibition of pAKT formation, alphaLISA SureFire Ultra AKT 1/2/3 (pS473), T47D cells; conditions: Homo sapiens, T47D
Summary of the method: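 T47D cells (12,000/well) in HBSS were dosed with compound at 10 concentrations (10.4 μM top, 1:4 dilutions) for about 1 h or 24 h at 37 °C, then lysed. pS473 AKT was read by alphaLISA. Signals were normalized to alpelisib and DMSO controls, and IC50 came from a four-parameter fit.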

[7] = MKN-1, read-out: MKN1 (E545K) pAKT IC50 (nM)
[8] = read-out: SKBR3 (WT) Viability IC50 (nM)
[9] = MKN-1, 72 h, read-out: MKN1 (E545K) Viability IC50 (nM)
[10] = read-out: T47D (H1047R mutant) Viability IC50 (nM)
[11] = read-out: T47D pAKT (H1047R mutant) IC50 (nM)
[12] = MKN-1, MKN1 (PI3Kα E545K mutant) cells, inhibition of pAKT (pS473) formation, approximately one hour or 24 hours treatment, read-out: MKN1 (E545K) pAKT IC50
[13] = SKBR3 (PI3Kα wild type) cells, CellTiter-Glo, approximately 72 hours, read-out: SKBR3 (WT) Viability IC50
[14] = MKN-1, MKN1 (PI3Kα E545K mutant) cells, CellTiter-Glo, approximately 72 hours, read-out: MKN1 (E545K) Viability IC50
[15] = T47D (PI3Kα H1047R mutant) cells, CellTiter-Glo, approximately 72 hours, read-out: T47D (H1047R mutant) Viability IC50
[16] = T47D (PI3Kα H1047R mutant) cells, inhibition of pAKT (pS473) formation, approximately one hour or 24 hours treatment, read-out: T47D pAKT (H1047R mutant) IC50

| SMILES | IC50 [1] [nM] | IC50 [2, 7] [nM] | IC50 [3, 8] [nM] | IC50 [4, 9] [nM] | IC50 [5, 10] [nM] | IC50 [6, 11] [nM] | IC50 [2, 12] [nM] | IC50 [3, 13] [nM] | IC50 [4, 14] [nM] | IC50 [5, 15] [nM] | IC50 [6, 16] [nM] |
| --- | --- | --- | --- | --- | --- | --- | --- | --- | --- | --- | --- |
| Cc1cc(C(C)Nc2ccccc2C(=O)O)c2nc(C)cc(=O)n2c1 (stereo not drawn) [Example 6-1, 2-((1-(2,7-dimethyl-4-oxo-4H-pyrido[1,2-a]pyrimidin-9-yl)ethyl)amino)benzoic acid] | > 10000 | > 10000 | > 10000 | > 10000 | > 10000 | 3370 |  |  |  |  |  |
| Cc1cc(C(C)Nc2ccccc2C(=O)O)c2nc(-c3ccccc3)cc(=O)n2c1 (stereo not drawn) [Example 7-1, 2-((1-(7-methyl-4-oxo-2-phenyl-4H-pyrido[1,2-a]pyrimidin-9-yl)ethyl)amino)benzoic acid] | 6650 | 6420 | > 10000 | > 10000 | 3140 | 13.3 |  |  |  |  |  |
| Cc1cc(C(C)Nc2ccccc2C(=O)O)c2nc(N3CCCCC3)c(C#N)c(=O)n2c1 (stereo not drawn) [Example 8-1, 2-((1-(3-cyano-7-methyl-4-oxo-2-(piperidin-1-yl)-4H-pyrido[1,2-a]pyrimidin-9-yl)ethyl)amino)benzoic acid] | 932 |  |  |  |  |  | 5540 | > 10000 | 9680 | 166 | 54 |
| Cc1cc(C(C)Nc2ccccc2C(=O)O)c2nc(C3CCOCC3)cc(=O)n2c1 (stereo not drawn) [Example 9-1, 2-((1-(7-methyl-4-oxo-2-(tetrahydro-2H-pyran-4-yl)-4H-pyrido[1,2-a]pyrimidin-9-yl)ethyl)amino)benzoic acid] | > 10000 |  |  |  |  |  | > 10000 | > 10000 | > 10000 | 2580 | 21.2 |
| CC(Nc1ccccc1C(=O)O)c1cccn2c(=O)cc(N3CCC(C)(C)CC3)nc12 (stereo not drawn) [Example 9-2, 2-((1-(2-(4,4-dimethylpiperidin-1-yl)-4-oxo-4H-pyrido[1,2-a]pyrimidin-9-yl)ethyl)amino) benzoic acid] | > 10000 |  |  |  |  |  | > 10000 | > 10000 | > 10000 | > 10000 | 33.9 |
| Cc1cc(C(C)Nc2ccccc2C(=O)O)c2nc(OCc3ccccc3)cc(=O)n2c1 (stereo not drawn) [Example 9-3, 2-((1-(2-(benzyloxy)-7-methyl-4-oxo-4H-pyrido[1,2-a]pyrimidin-9-yl)ethyl)amino)benzoic acid] | > 10000 |  |  |  |  |  | > 10000 | 4770 | 3780 | 4450 | 129 |
